Laboratory results from patent publication US5885961A, “Methods of using epithelins to modulate cell proliferation” (Bristol-Myers Squibb Company, priority 1995, dated 1999).
“Also recorded” adds a separate entry of the source.

Key:
[1] = system: human colon carcinoma cell line HCT 116; assay: 125I-deoxyuridine incorporation into DNA, HCT 116; type: cell-based; conditions: maximum dose tested: 20 ng/ml epithelin 1, 270 ng/ml epithelin 2
monkey kidney COS1 cells = assay: 125I-deoxyuridine incorporation into DNA, COS1; type: cell-based
[2] = system: A431 human epidermoid carcinoma cells; assay: Cell growth inhibitory activity (GIA), 125I-deoxyuridine incorporation into DNA; type: cell-based
Protocol: The cell growth inhibitory activity (GIA) assays were performed in flat-bottom 96 well plates (Falcon 3072). Human epidermoid carcinoma of vulva cells (A431) were used as test cells for GIA. 3.5×10^3 cells in 50 μl of test medium (DMEM supplemented with 5% heat inactivated fetal bovine serum (FBS), penicillin/streptomycin (PS) and glutamine) were placed in all wells except peripheral wells. The peripheral wells received 50 μl PBS. Three hours later, 50 μl of test sample in test medium was added to each well, while control wells received only 50 μl of test medium. Three wells were used for each concentration of test sample. Plates were incubated at 37° C. for 2-3 days. Then, 100 μl of a solution of […] (^125 I-IUdR, 4Ci/mg-0.5 mCi/ml, 2 μl/ml in test medium) was added to each well and plates were incubated at 37° C. After 4-6 hours, the medium was aspirated from the wells, which were then washed once with 200 μl PBS. Then, 200 μl methanol was added to each well, plates were incubated for 10 minutes at room temperature, and the methanol was removed by aspiration. 200 μl of 1M sodium hydroxide was added to each well, the plates were incubated for 30 minutes at 37° C. Sodium hydroxide was removed with titertek plugs (Flow Labs). The plugs were transferred into 12×75 mm plastic tubes and counted in a gamma counter to quantify ^125 I-IUdR incorporation.

[3] = system: human fibroblasts and several other human tumor cells; assay: 125I-deoxyuridine incorporation into DNA, human fibroblasts and other human tumor cells; type: cell-based; conditions: maximum dose tested: 20 ng/ml epithelin 1, 270 ng/ml epithelin 2
NRK-SA6 cells [4] = assay: Soft agar colony assay in the presence of TGFβ; type: cell-based, rat
Protocol: FIG. 17. Effect of epithelin 1 and 2 on NRK-SA6 cell colony formation in soft agar in the presence of TFGβ (1 ng/ml). The colony formation assay used is described in Section 6.2.3, infra. Solid bars, epithelin 1; stippled bar, epidermal growth factor; open bar, epithelin 2; hatched bar, 20 ng/ml epithelin 1 plus 500 ng/ml epithelin 2.
A 0.38 ml base layer of 0.5% agar (Agar Noble; Difco Laboratories, Detroit, Mich.) in DMEM containing 10% heat inactivated FBS was added to 24 well Costar tissue culture plates. 0.38 ml of 0.3% agar containing the same medium-FBS mixture, 6-12×10^3 test cells, and the test proteins at various concentrations were overlaid on the basal layer of agar. The plates were incubated at 37° C. in a humidified atmosphere of 5% CO2 in air. Colonies were enumerated unfixed and unstained, and the number of colonies was scored between days 7 and 10. Colonies were defined as a cluster of at least eight cells.

[5] = Resistance of bioactivity to chemical, heat and enzyme treatment; type: physicochemical
Protocol: Epithelin 1 and epithelin 2 are resistant to treatment with 1M acetic acid, 1M ammonium hydroxide, 6M urea, 0.01M sodium metaperiodate, to heating at 56° C. for 30 minutes, and to treatment with various glycosidases or lipases. However, epithelin activity was sensitive to reduction, to reduction and 4-vinylpyridine treatment, and to digestion with proteinases such as trypsin, endoproteinase Lys-C, and endoproteinase Glu-C (V8).

Balb/MK cells [6] = assay: Growth stimulatory activity (GSA), 125I-deoxyuridine incorporation into DNA of murine keratinocytes; type: cell-based
Protocol: FIG. 15(A-B). (FIG. 15A) Effect of epithelin 1 and epithelin 2 on the stimulation of ^125 I-deoxyuridine incorporation into DNA of the murine keratinocyte cell line Balb/MK. 2,000-4,000 cells were plated per well in 96 well plates in low-calcium medium containing 5% dialyzed FBS. Then GSA assays were performed as described in Section 6.2., infra. .circle-solid., epithelin 1; o, epithelin 2. (FIG. 15B) Effect of various concentrations of epithelin 2 on epithelin 1 (20 ng/ml) elicited incorporation of ^125 I-deoxyuridine into DNA of Balb/MK cells.
Balb/MK cells were also used as indicator cells in 96 well plates to assess the growth inhibitory activity (GIA) or growth stimulatory activity (GSA) of a test material using ^125 I-deoxyuridine incorporation into DNA as described in the previous section.

Balb/MK cells [7] = assay: Murine keratinocyte growth assay (cell count); type: cell-based; conditions: for effect on growth of Balb/MK cells (rodent keratinocytes): FIG. 16A
Protocol: FIG. 16(A-B). (FIG. 16A) Effect of epithelin 1 and epidermal growth factor (EGF) on the growth of Balb/MK cells. Assays were performed as described in Section 6.2., infra. .circle-solid., epithelin 1; o, EGF (FIG. 16B) Effect of various concentrations of epithelin 2 on the epithelin 1 (20 ng/ml) induced growth of murine keratinocytes.
Balb/MK cells were plated at 1×10^4 cells per well in 1 ml of low calcium medium (Weissman and Aaronson, 1983, Cell 32:599-606; Carpenter and Zendegut, 1985, Anal. Biochem. 153:279-282) in 24-well Costar plates and incubated at 37° C. for 4-6 hours. Then media were removed and replaced with 1 ml of medium containing various concentrations of the test compound in triplicate. The control wells received only medium without any test material. The plates were incubated at 37° C. for 4 days, then medium was removed, wells were rinsed two times with 1 ml of phosphate-buffered saline, and the cells were detached with trypsin-EDTA and counted.

mink lung CCL 64 cells = assay: 125I-deoxyuridine incorporation into DNA, CCL 64; type: cell-based
EGF receptors = EGF receptors (Homo sapiens, UniProt P00533); assay: Binding of 125I-EGF to its receptors
NRK cells = assay: Mitogenic activity on NRK cells in monolayer; type: cell-based, rat
NRK-SA6 cells [8] = conditions: in the presence of TGFβ; Roberts et al., 1981; cited from earlier work

With “epithelin 2: single chain polypeptide of 57 amino acid residues, 12 cysteines, purified from rat kidney; antagonizes epithelin 1 growth stimulation (VVCPDAKTQCPDDSTCCELPTGKYGCCPMPNAICCSDHLHCCPQDTVCDLIQSKCIS)” as the substance, how does the “effect on growth of HCT 116 cells” value [1] read?
The value was “did not show any effect”.

And the “effect on 125I-deoxyuridine incorporation into DNA” value (monkey kidney COS1 cells)?
The value was “significantly inhibited”.

What about the “50% inhibition of DNA synthesis (125I-deoxyuridine incorporation)” value ([2]; A431 cells, purified protein, FIG. 14) of the same substance?
The value was 450 ng/well.

And the IC50 ([2]; A431 cells, read-out: concentration for 50% inhibition of 125I-deoxyuridine incorporation)?
The IC50 was roughly 0.75 µM.

And the “Specific Activity” value ([2]; final purification step Anal TSK-250 (Table III))?
The value was 3,810 Units/mg.

And the “specific activity of purified protein (GIA)” value ([2]; one unit = amount inhibiting 125I-deoxyuridine incorporation into A431 cells by 50%)?
Its value is 3.8×10^3 units/mg protein.

And the “effect on human fibroblasts and several other human tumor cells” value [3]?
Its value is “Neither protein exhibited any significant effect”.

What about the “inhibition of epithelin 1-induced colony formation in soft agar” value (NRK-SA6 cells [4]; epithelin 2 at ~85 nM, epithelin 1 20 ng/ml) of the same substance?
The value was “about 50%”.

What about the “anchorage-independent growth (colony formation in soft agar) of NRK cells” value (NRK-SA6 cells [4]; in the presence of TGFβ 1 ng/ml, FIG. 17) of the same substance?
Its value is “did not; also recorded: no effect”.

What about the “resistance to 1M acetic acid, 1M ammonium hydroxide, 6M urea, 0.01M sodium metaperiodate, heating at 56° C. for 30 minutes, glycosidases or lipases” value [5] of the same substance?
The value was “stable; also recorded: resistant”.

And the “sensitivity of activity to reduction, reduction and 4-vinylpyridine treatment, and proteinases (trypsin, Lys-C, Glu-C)” value [5]?
Its value is “sensitive”.

What about the IC50 (Balb/MK cells [6]; Balb/MK cells, epithelin 1 20 ng/ml, FIG. 15B, read-out: 50% inhibition of epithelin 1 elicited 125I-deoxyuridine incorporation) of the same substance?
Its IC50 is roughly 0.021 µM.

What about the “effect on 125I-deoxyuridine incorporation into DNA of Balb/MK cells” value (Balb/MK cells [6]; FIG. 15A) of the same substance?
Its value is “did not show any significant effect”.

And the “effect on growth of Balb/MK cells (rodent keratinocytes)” value (Balb/MK cells [7])?
The value was “did not exhibit any significant effect; also recorded: no effect”.

And the IC50 (Balb/MK cells [7]; epithelin 1 20 ng/ml, FIG. 16B, read-out: 50% inhibition of epithelin 1-induced growth of Balb/MK cells)?
The IC50 was roughly 0.007 µM.

What about the “effect on 125I-deoxyuridine incorporation into DNA” value (mink lung CCL 64 cells) of the same substance?
The value was “significantly inhibited”.

What about the “effect on binding of 125I-EGF to its receptors” value (EGF receptors) of the same substance?
Its value is “Neither epithelin 1 nor epithelin 2 significantly affected the binding”.

And the “mitogenic activity on NRK cells in monolayer” value (NRK cells)?
The value was “not”.

For “EGF: epidermal growth factor, comparison growth factor (NSDSECPLSHDGYCLHDGVCMYIEALDKYACNCVVGYIGERCQYRDLKWWELR; UniProt P01133 971-1023, looked up) [reference compound]”, which “anchorage-independent growth of rat kidney cells NRK-SA6” value (NRK-SA6 cells [8]) is on record?
Its value is “induces anchorage-independent growth”.

What about the “effect on growth of Balb/MK cells (rodent keratinocytes)” value (Balb/MK cells [7]) of the same substance?
Its value is “did not proliferate in the absence of EGF or epithelin 1”.

Which “anchorage-independent growth of rat kidney cells NRK-SA6” value (NRK-SA6 cells [8]) does the source give for TGFα: transforming growth factor-α here?
Its value is “induces anchorage-independent growth”.
